In the supplement of paper PMC10307832:

Assays:
Experiment in all cases: relative viability (nuclei count vs DMSO), 5 days (fraction); higher = more cells survive
[1] = compound: Cc1nc(NC(=O)N2CCC[C@H]2C(N)=O)sc1-c1ccnc(C(C)(C)C(F)(F)F)c1 [Alpelisib] + O=C(c1cc(Cc2n[nH]c(=O)c3ccccc23)ccc1F)N1CCN(C(=O)C2CC2)CC1 [Olaparib] (partner 8 µM)
Summary of the method: (§1)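 Lung cancer cell lines, seeded in 1536-well plates, were treated the following day by pin tool with a single drug or with five library-drug doses (not always all listed) in √10 steps on top of a fixed anchor-drug dose. Cells were fixed and nuclei stained in one step after 5 days, and nuclei were counted. Relative viability is the nuclei count for treated wells divided by that for vehicle wells, reported as medians of duplicate plates.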

[2] = compound: COc1cccc2cc(-c3nc([C@H]4CC[C@H](C(=O)O)CC4)n4ncnc(N)c34)[nH]c12 [OSI-027] + CS(=O)(=O)N1CCN(Cc2cc3nc(-c4cccc5[nH]ncc45)nc(N4CCOCC4)c3s2)CC1 [Pictilisib] (partner 1 µM)
Summary of the method: as §1

[3] = compound: COc1cccc2cc(-c3nc([C@H]4CC[C@H](C(=O)O)CC4)n4ncnc(N)c34)[nH]c12 [OSI-027] + CS(=O)(=O)CCNCc1ccc(-c2ccc3ncnc(Nc4ccc(OCc5cccc(F)c5)c(Cl)c4)c3c2)o1 [Lapatinib] (partner 2 µM)
Summary of the method: as §1

[4] = compound: CCCS(=O)(=O)Nc1ccc(F)c(C(=O)c2c[nH]c3ncc(-c4ccc(Cl)cc4)cc23)c1F [Vemurafenib] + CS(=O)(=O)CCNCc1ccc(-c2ccc3ncnc(Nc4ccc(OCc5cccc(F)c5)c(Cl)c4)c3c2)o1 [Lapatinib] (partner 2 µM)
Summary of the method: as §1

| Cell Line | relative viability ([1]; first compound 0.04 µM) | relative viability ([1]; first compound 0.1265 µM) | relative viability ([1]; first compound 0.4 µM) | relative viability ([1]; first compound 1.265 µM) | relative viability ([1]; first compound 4 µM) | relative viability ([2]; first compound 0.01 µM) | relative viability ([2]; first compound 0.03162 µM) | relative viability ([2]; first compound 0.1 µM) | relative viability ([2]; first compound 0.3162 µM) | relative viability ([2]; first compound 1 µM) | relative viability ([3]; first compound 0.01 µM) | relative viability ([3]; first compound 0.03162 µM) | relative viability ([3]; first compound 0.1 µM) | relative viability ([3]; first compound 0.3162 µM) | relative viability ([3]; first compound 1 µM) | relative viability ([4]; first compound 0.03162 µM) | relative viability ([4]; first compound 0.1 µM) | relative viability ([4]; first compound 0.3162 µM) | relative viability ([4]; first compound 1 µM) |
| --- | --- | --- | --- | --- | --- | --- | --- | --- | --- | --- | --- | --- | --- | --- | --- | --- | --- | --- | --- |
| Calu-6 | 0.602 | 0.529 | 0.646 | 0.615 | 0.577 | 0.94 | 0.762 | 0.655 | 0.544 | 0.319 | 1.06 | 1.06 | 0.953 | 0.829 | 0.621 | 1.02 | 1.06 | 1.01 | 0.924 |
| ChaGo-K-1 | 0.435 | 0.42 | 0.426 | 0.417 | 0.342 | 0.665 | 1.02 | 0.356 | 0.492 | 0.381 | – | – | – | – | – | – | – | – | – |
| EBC-1 | 0.682 | 0.74 | 0.655 | 0.636 | 0.587 | 0.344 | 0.359 | 0.299 | 0.216 | 0.238 | 0.187 | 0.217 | 0.223 | 0.199 | 0.203 | 0.201 | 0.214 | 0.245 | 0.261 |
| EKVX | 0.856 | 0.897 | 1.1 | 0.753 | 0.512 | 0.456 | 0.384 | 0.368 | 0.302 | 0.177 | 0.169 | 0.189 | 0.201 | 0.16 | 0.153 | 0.189 | – | 0.253 | 0.208 |
| EMC-BAC-2 | 0.492 | 0.382 | 0.498 | 0.347 | 0.318 | 0.597 | 0.47 | 0.469 | 0.431 | 0.376 | 0.843 | 0.874 | 0.838 | 0.7 | 0.516 | 0.874 | 0.916 | 0.812 | 0.882 |
| EPLC-272H | 0.936 | 0.838 | 0.75 | 0.393 | 0.485 | 0.287 | 0.308 | 0.296 | 0.316 | 0.215 | 1.12 | 0.965 | 0.699 | 0.664 | 0.55 | 0.913 | 1 | 0.423 | 0.939 |
| H3255 | 0.571 | 0.59 | 0.651 | 0.538 | 0.474 | 0.466 | 0.471 | 0.441 | 0.379 | 0.24 | 0.22 | 0.269 | 0.234 | 0.183 | 0.234 | 0.254 | – | 0.283 | 0.28 |
| HARA | 0.696 | 0.64 | 0.742 | 0.453 | 0.452 | 0.334 | 0.402 | 0.397 | 0.242 | 0.258 | 0.741 | 0.577 | 0.549 | 0.418 | 0.405 | 0.745 | – | 0.782 | 0.625 |
| HCC-15 | 0.685 | 0.765 | 0.738 | 0.616 | 0.509 | 0.768 | 0.771 | 0.68 | 0.596 | 0.367 | 0.872 | 0.849 | 0.819 | 0.763 | 0.529 | 0.786 | 0.849 | 0.613 | 0.773 |
